From paper PMC6342294, “Asymmetric diversification of mating pheromones in fission yeast” (PLoS Biology, 2019)

Key:
S. pombe cells = assay: Quantitative assay of zygote formation (mating efficiency), S. pombe strains; assay type: cell-based; settings: peptide produced by engineered strain; mfm1 gene integrated in M-factorless strain FY23412; MEA, 2 days, 30 °C; mean ± SD of triplicate
Method: The resulting strains each produced one of the six P-factors. The mating efficiency of these strains was assessed by the frequency of zygotes. […] To determine whether the order of nucleotide sequences encoding mature P-factor affects zygote frequency, we also introduced a map2 gene carrying a permuted sequence of repeats (P2-P3-P2-P1) into the FY23418 strain. Similar to the strain with the native sequence, this strain also mated at high frequency (74.2% ± 1.7%) (Fig 2D); therefore, the effect of peptide-coding position appears small.
Next, we assessed whether the pheromone peptides of S. octosporus are effective on S. pombe cells. […] Next, we replaced the Sp-M-factor–encoding sequence in the mfm1^+ gene with the So-M-factor–encoding sequence (mfm1^So). […] In short, S. pombe P cells were unable to mate with M cells producing So-M-factor. […] We also replaced the So-P-factor–encoding sequence (7 repeats) in the So-map2^+ gene with the Sp-P-factor–encoding sequence (4 repeats) (So-map2^Sp) in S. octosporus cells. […]
Cells grown on YEA plates overnight were resuspended in sterilized water to a cell density of 1 × 10^8 cells/ml. […] The percentage of zygotes was calculated, as described previously. In all cases, triplicate samples (at least 300 cells each) were counted, and the mean and standard deviation (SD) were calculated.

Map3 = target: T1, Map3 (Schizosaccharomyces pombe, UniProt P31397); assay: Shmooing assay of synthetic M-factor peptides on P cells lacking rgs1+ (TS405); assay type: cell-based, S. pombe; settings: EMM2−N
T1 construct: an M-factor-sensitive strain lacking the rgs1^+ gene [53]; endogenous in cells; host or cells: S. pombe heterothallic haploid P cells lacking rgs1+ (TS405)
T1 sequence (P31397 1-365): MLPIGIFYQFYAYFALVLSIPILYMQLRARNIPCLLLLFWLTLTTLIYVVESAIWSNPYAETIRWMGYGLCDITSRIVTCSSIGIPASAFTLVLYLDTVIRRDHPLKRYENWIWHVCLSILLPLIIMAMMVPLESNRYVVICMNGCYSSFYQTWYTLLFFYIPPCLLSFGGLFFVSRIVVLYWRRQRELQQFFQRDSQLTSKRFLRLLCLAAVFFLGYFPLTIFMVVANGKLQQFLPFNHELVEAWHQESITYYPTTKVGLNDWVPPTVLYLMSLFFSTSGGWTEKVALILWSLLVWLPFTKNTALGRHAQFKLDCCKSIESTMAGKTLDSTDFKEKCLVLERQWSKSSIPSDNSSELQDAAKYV
Method: Under these conditions, approximately 40% of cells treated with Sp-M-factor peptide underwent shmoo formation, whereas no cells treated with So-M-factor peptide underwent shmooing (S5B Fig). When the concentration of So-M-factor was raised to 1,000 nM, the cells underwent shmoo elongation a little (S5B Fig).
P-factor and M-factor peptides were chemically synthesized (Eurofins) for the shmooing assay. The purity of the preparations was over 95% (HPLC). P-factor was dissolved in dimethyl sulfoxide (DMSO) at a concentration of 500 μM, and M-factor was dissolved in methanol (MeOH) at a concentration of 1 mM. The stock solutions were diluted with culture medium to the appropriate dilution ratio. For the assay, heterothallic haploid cells were grown in YE medium overnight, washed with sterilized water three times, and then resuspended in EMM2−N medium at a cell density of 4 × 10^7 cells/ml. The cells were treated with the synthetic pheromone and incubated for exactly 24 hours with gentle shaking.
To assess whether Mam2 could recognize different P-factors, a P-factor sensitive strain lacking the sxa2^+ gene (TS402) was used. The cells were incubated with synthetic P-factors at different concentrations (0, 10, 100, and 1,000 nM) for 24 hours and observed by a DIC microscope. Images were recorded, and the L and W of a cell were measured to determine the L/W ratio. […] In all cases, at least 100 cells each were measured. […] The cells were treated with synthetic M-factors at different concentrations (0, 100, and 1,000 nM) for 24 hours, and analyzed, as described above.
Supplementary file pbio.3000101.s005.tif: S5 Fig Effects of mating pheromones of S. octosporus on S. pombe cells. […] The ability of each M-factor peptide to induce shmooing was assessed by the L/W ratio of a cell, as described in S3 Fig. (C) Comparison of the amino sequences of Sp-P-factors and So-P-factors. […] The shmooing assay was evaluated as described in S3 Fig. EMM2−N, Edinburgh Minimal Medium 2 lacking nitrogen; L, length; M, Minus; P, Plus; rgs, regulator of G-protein signaling; So, S. octosporus; Sp, S. pombe; W, width. […]

[1] = TS405 P cells (rgs1Δ), 100 nM synthetic M-factor, one day

Substance | Mating efficiency (zygotes) of S. pombe strain producing only this M-factor (S. pombe cells) | Proportion of cells that underwent shmoo formation, 100 nM (Map3; [1]) | Shmooing at 100 nM (in words) (Map3; [1]) | Shmoo elongation at 1,000 nM (in words) (Map3; TS405 P cells (rgs1Δ), 1,000 nM synthetic M-factor, 24 hours)
YTPKVPYMC^Far-OCH3 [Sp-M-factor, S. pombe mature M-factor, farnesylated and methylated peptide of nine amino acids, reference compound] | 72.1% ± 3.7% | approximately 40% | – | –
YQPKPPAMC^Far-OCH3 [So-M-factor, putative M-factor of S. octosporus, farnesylated methylated nonapeptide] | completely sterile | – | no cells | a little
